Data from patent US9930893B2, “Inhibitors of DXP synthase and methods of use thereof” (The Johns Hopkins University, priority 2014, dated 2018).
Values after ≈ are worked out from the molar mass of the structure shown. Values joined by “and” are separate entries in the source; they are usually repeats but may differ in a detail not shown here. Equal values may be shown once. Read-outs that look alike come from different tables or passages of the source.

How the values were obtained:
[1] = tested on: ΔtolC variant of E. coli BW25113; experiment: Antimicrobial activity against ΔtolC variant grown in CAMHB; assay type: cell-based; settings: 0.63 to 5 mM, 16 hour
Procedure: (§1) Standardized innocula of E. coli BW25113 (approximately ˜10^5 CFU mL^−1) were treated with varying concentrations of either MAP (blue) or EAP (orange) from 0.63 to 5 mM for 16 hours, and fractional growth was determined by comparison to a no drug control. The ΔtolC variant of BW25113 was also treated with varying concentrations of MAP (black) or EAP (green) from 0.63 to 5 mM for 16 hour, and fractional growth was determined by comparison to no drug controls. Experiments were performed in duplicate, and error bars represent standard deviation.

E. coli BW25113 = experiment: Antimicrobial activity against E. coli BW25113 grown in CAMHB; assay type: cell-based; settings: 0.63 to 5 mM, 16 hours
Procedure: FIG. 9 is a chart showing antimicrobial activity of acetylphosphonates against E. coli BW25113 grown in CAMHB. Standardized cell cultures (approximately ˜10^5 CFU mL^−1) were exposed to increasing concentrations of acetylphosphonate. Fractional growth was determined at 16 hours as a percentage of the growth of no drug control. BAP (●), PentAP (▪) and HexAP (▴) were varied from 0.31 to 5 mM. OctAP (▾) was varied from 0.63 to 5 mM, and BnAP (♦) was varied from 0.16 mM to 5 mM. Each data point is the average of 3 independent experiments and the error bars are standard error.
as §1

[2] = tested on: wild-type K-12 E. coli (ATCC: MG1655); experiment: Antimicrobial activity against E. coli K-12 grown in CAMHB; assay type: cell-based
Procedure: FIG. 7A and FIG. 7B are charts showing representative growth curves are shown for BAP (FIG. 7A) and BnAP (FIG. 7B). Alkylacetylphosphonates exert dose-dependent delay in E. coli K-12 (MG 1655) growth in CAMHB. Fractional growth (measured at 16 h, blue arrow) was determined relative to the no drug control. Standardized cell cultures were exposed to increasing concentrations of acetylphosphonate, and growth was determined by measuring the OD600 for a period of 16 hours. Acetylphosphonate concentration was varied from 0-5 mM: No drug (light blue), 0.08 mM (orange), 0.16 mM (gray), 0.31 mM (yellow), 0.63 mM (blue), 1.25 mM (green), 2.5 mM (dark blue) and 5.0 mM (brown).
Thus, BnAP, PentAP, HexAP and OctAP, also shown to inhibit DXP synthase, were evaluated for antimicrobial activity against wild-type K-12 E. coli (ATCC: MG1655) grown in rich medium (CAMHB).

E. coli DXP synthase = target: T1, E. coli DXP synthase (Escherichia coli, UniProt P77488); experiment: biochemical; settings: competitive with respect to pyruvate
T1 construct: made in house
T1 sequence (P77488 whole entry): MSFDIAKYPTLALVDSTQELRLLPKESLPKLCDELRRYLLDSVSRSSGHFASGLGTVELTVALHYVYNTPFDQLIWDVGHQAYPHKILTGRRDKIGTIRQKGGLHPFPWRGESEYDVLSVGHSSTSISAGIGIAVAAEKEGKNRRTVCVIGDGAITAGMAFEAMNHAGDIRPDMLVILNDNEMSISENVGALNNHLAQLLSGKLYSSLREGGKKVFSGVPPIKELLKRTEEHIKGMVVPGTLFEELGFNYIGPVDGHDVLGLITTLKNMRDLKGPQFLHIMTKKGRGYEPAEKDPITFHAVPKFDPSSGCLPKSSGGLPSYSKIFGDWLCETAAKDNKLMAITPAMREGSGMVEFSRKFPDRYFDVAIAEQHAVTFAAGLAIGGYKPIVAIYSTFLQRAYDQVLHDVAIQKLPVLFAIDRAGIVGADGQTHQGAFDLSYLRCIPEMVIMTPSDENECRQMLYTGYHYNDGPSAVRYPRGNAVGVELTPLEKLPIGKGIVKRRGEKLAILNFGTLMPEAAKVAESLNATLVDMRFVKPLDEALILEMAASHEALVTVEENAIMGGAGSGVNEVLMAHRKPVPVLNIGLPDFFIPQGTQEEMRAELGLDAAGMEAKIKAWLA
Procedure: FIG. 4A, FIG. 4B, and FIG. 4C are charts showing competitive inhibition of DXP synthase by pentylacetylphosphonate (PentAP; FIG. 4A), hexylacetylphosphonate (HexAP; FIG. 4B), and octylacetyl phosphonate (OctAP; FIG. 4C). Inhibition assays were performed as previously described^[18], [40]). […] Pyruvate concentration was varied from 12-240 μM and acetylphosphonate concentration was varied: 0 μM (∘), 10 μM (●), 25 μM (□) and 50 μM (▪). Experiments were performed in triplicate, and data were subjected to non-linear regression analysis for Ki determinations (GraphPad Prism). Representative Lineweaver-Burk plots (GraFit from Erithacus Software) are shown for PentAP (FIG. 4A), HexAP (FIG. 4B) and OctAP (FIG. 4C) to illustrate the competitive inhibition mode with respect to pyruvate.
Inhibition of DXP synthase was measured as previously described^[13], [18]. […] Acetylphosphonate concentration was varied from 0 to 250 μM. […] Experiments were performed in triplicate for BAP and in duplicate for iPrAP
In order to evaluate the inhibitory activity of BnAP against DXP synthase, a continuous spectrophotometric coupled assay was used to measure formation of DXP by monitoring IspC consumption of NADPH (340 nm). ^[2] DXP synthase reaction mixtures (previously described) including BnAP (15, 30, and 60 μM), IspC (1 μM) and NADPH (100 μM) were pre-incubated at 37° C. for 5 minutes. Initial rates were measured after the reaction was initiated by the addition of DXP synthase. Inhibition of the coupling enzyme (IspC) by BnAP was not observed up to 1.5 mM. Experiments were performed in triplicate. Double reciprocal analysis of data was carried out using GraFit version 7 from Erithacus Software.

[3] = target: T2, Porcine pyruvate dehydrogenase (PDH E1 subunit) (Sus scrofa, UniProt P29804); experiment: Inhibition of PDH by acetylphosphonates; assay type: biochemical; settings: Table 5 (no unit in table; μM)
T2 construct: Ki^PDH; μM); Ki^PDH
T2 sequence (P29804 1-390): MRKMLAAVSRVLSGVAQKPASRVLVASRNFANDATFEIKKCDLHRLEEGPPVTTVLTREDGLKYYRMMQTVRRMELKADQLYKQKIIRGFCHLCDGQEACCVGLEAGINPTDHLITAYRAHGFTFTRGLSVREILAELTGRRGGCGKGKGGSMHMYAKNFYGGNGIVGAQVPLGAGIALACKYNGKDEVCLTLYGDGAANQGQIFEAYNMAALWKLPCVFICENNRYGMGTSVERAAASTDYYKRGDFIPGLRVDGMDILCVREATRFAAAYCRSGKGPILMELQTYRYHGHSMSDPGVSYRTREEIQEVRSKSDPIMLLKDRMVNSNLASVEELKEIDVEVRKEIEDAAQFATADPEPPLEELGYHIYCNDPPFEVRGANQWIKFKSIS
Procedure: FIG. 6A, FIG. 6B, and FIG. 6C are charts showing Competitive inhibition of procine PDH E1 subunit by PentAP (FIG. 6A), HexAP (FIG. 6B) and OctAP (FIG. 6C). Inhibition assays were performed as previously described^[18]. Pyruvate concentration was varied from 12.5-250 μM and acetylphosphonate concentration was varied: 0 μM (∘), 250 μM (PentAP) or 200 μM (HexAP and OctAP) (●), 500 μM (□) and 1000 μM (▪). Experiments were performed in triplicate, and data were subjected to non-linear regression analysis for Ki determinations (GraphPad Prism). Representative Lineweaver-Burk plots (GraFit from Erithacus Software) are shown for PentAP (FIG. 6A), HexAP (FIG. 6B) and OctAP (FIG. […]) to illustrate the competitive inhibition mode with respect to pyruvate.
Pyruvate dehydrogenase activity was measured spectrophotometrically as previously reported ^[38] by monitoring absorbance changes at 340 nm due to reduction of NAD^+ by PDH. Reaction mixtures contained 100 mM HEPES (pH 8.0), 1 mg/mL BSA, 0.2 mM ThDP, 0.1 mM coenzyme A, 1 mM MgCl2, 2 mM cysteine, 0.3 mM tris(2-carboxyethyl)phosphine (TCEP). The reaction was initiated with enzyme (0.01 units/ml) and activity was monitored at 30° C. For inhibition studies, reaction mixtures (described above) including BnAP (0.5, 1, 2.25 mM) were pre-incubated at 30° C. for 5 minutes. Initial rates were measured immediately after reactions were initiated by addition of PDH (0.01 units/ml). Double reciprocal analysis of data was carried out using GraFit version 7 from Erithacus Software.

E. coli K-12 (BW25113) = experiment: Antimicrobial activity against E. coli K-12 grown in M9 minimal medium; assay type: cell-based; settings: Escherichia coli, BW25113
Excerpt: The product of DXP synthase, DXP, lies at a metabolic branchpoint. DXP serves as precursor not only for essential isoprenoids, but also is essential to central metabolism as a precursor to both thiamin diphosphate and pyridoxal phosphate. Thus, evaluation of antimicrobial activity of DXP synthase inhibitors in the standard, rich growth medium (CAMHB) which contains rescuing metabolites, likely underestimates the antimicrobial activities of these agents. Standard in vitro culture conditions may have poor predictive value for these agents in vivo; access to most nutrients is thought to be more difficult from the host than in nutrient rich media.

With `CCOP(=O)(O)C(C)=O` [EAP, ethyl acetylphosphonate] the “activity against ΔtolC variant” value [1] was “inactive” and the “activity against E. coli BW25113” value (E. coli BW25113) was “inactive”.
`CCCCCOP(=O)(O)C(C)=O` [PentAP, Pentylacetylphosphonate] showed an MIC90 ([2]; Escherichia coli, MG1655, 16 h, read-out: minimum inhibitory concentration (MIC90)) of 1250 µM (≈ 243 µg/mL), a Ki (E. coli DXP synthase; Ki (DXP synthase)) of 9.9 ± 0.4 µM and a Ki ([3]; Ki^PDH) of 250 ± 31 µM. For the same compound, the MIC (E. coli K-12 (BW25113)) was 12500 µM (≈ 2430 µg/mL).
`CCCCCCCCOP(=O)(O)C(C)=O` [OctAP, Octylacetylphosphonate] was tested, and the “antimicrobial effects against E. coli (MG1655)” value ([2]; FIG. 10, in words) was “inactive”, the “inactive up to” value ([2]; rich medium (CAMHB)) was > 5 mM and > 1210 ug/mL and the Ki (E. coli DXP synthase; read-out: Ki (DXP synthase)) was 6 ± 0.2 µM. The Ki ([3]; read-out: Ki^PDH) was 154 ± 14 µM and the MIC (E. coli K-12 (BW25113); M9 minimal medium, preliminary, read-out: MIC) was 1250 µM (≈ 295 µg/mL).
In the case of `COP(=O)(O)C(C)=O` [MAP, methyl acetylphosphonate], the “activity against ΔtolC variant” value [1] is reported as “inactive” and the “activity against E. coli BW25113” value (E. coli BW25113) is reported as “inactive”.
